Experimental data reported in publication PMC9449155 (Brazilian Journal of Otorhinolaryngology, 2017).

What was measured:
[1] = laboratory experiments and clinical studies; cited from earlier work
Text: (§1) Fishman et al. reported that in a large review of patients with culture-positive, persistent tympanostomy tube otorrhea, S. aureus accounted for 52% of the organisms cultured, of which 57% were MRSA.[20] Presently, the most commonly used antibiotic against MRSA is vancomycin. […] Although there is no emergence of VRSA in CSOM, new anti-MRSA peptides need to be studied for the prevention of VRSA or VISA. Mandal et al. reported that approximately 15% of MRSA ...

MRSA = assay: Inhibition zone assay; type: cell-based, Methicillin-resistant Staphylococcus aureus; conditions: 37 °C overnight
Experimental: MRSA was grown overnight for 18 h at 37 °C in 10 mL of LB broth and then 10 μL of this culture was inoculated into 10 mL of fresh LB and incubated for an additional 3 h at 37 °C to obtain mid-logarithmic phase organisms. The bacterial suspension (2 × 10^5 CFU/mL in LB) was mixed with 0.7% agarose and poured into a 10 cm Petri dish. […] The diameters of the bacterial clearance zones surrounding the circle paper were measured for the quantitation of inhibitory activities.

guinea pigs = conditions: guinea pig, in vivo; cited from earlier work
Text: as §1

[2] = paper disc on agarose plate, MRSA, zone size dose-dependent (Fig. 2)

Compound: CN[C@H](CC(C)C)C(=O)N[C@H]1C(=O)N[C@@H](CC(N)=O)C(=O)N[C@H]2C(=O)N[C@H]3C(=O)N[C@H](C(=O)N[C@H](C(=O)O)c4cc(O)cc(O)c4-c4cc3ccc4O)[C@H](O)c3ccc(c(Cl)c3)Oc3cc2cc(c3O[C@@H]2O[C@H](CO)[C@@H](O)[C@H](O)[C@H]2O[C@H]2C[C@](C)(N)[C@H](O)[C@H](C)O2)Oc2ccc(cc2Cl)[C@H]1O [vancomycin]
- ototoxicity after vancomycin treatment [1]: did not demonstrate significant ototoxicity

Compound: KRIVQRIKKWLR-NH2 [KR-12-a2]
- amount from which an inhibition zone against MRSA was produced (MRSA; 10 μL aliquots of serial dilution on ≈6 mm paper discs, MRSA 2 × 10^5 CFU/mL in LB with 0.7% agarose): 6.25 µg
- amount giving the highest mean diameter of the inhibition zone (MRSA; [2]): 100 µg
- amount giving the lowest mean diameter of the inhibition zone (MRSA; [2]): 6.25 µg

Compound: daptomycin
- ototoxicity after topical application (guinea pigs): no ototoxicity
